The text below walks through data of patent US9974305B2, “Fungicidal or bactericidal composition, and method for controlling diseases” (NISSAN CHEMICAL INDUSTRIES, LTD., priority 2014, dated 2018).

Read-outs that look alike come from different tables or passages of the source.

Assay [1] deals with cucumber gray mold fungus (Botrytis cinerea). As to the kind of experiment: Preventive test against gray mold on cucumber cotyledon leaves, spray treatment, preventive value and Colby expected value (Test Examples 1-4). It counts as in vivo. As to conditions: single compound; for pest or weed control at 100 ppm / pest or weed control at 3 ppm / pest or weed control at 10 ppm / pest or weed control at 50 ppm / pest or weed control at 5 ppm / pest or weed control at 35 ppm / pest or weed control at 8 ppm / pest or weed control at 25 ppm: Botrytis cinerea, 72 h; for pest or weed control at 3 ppm: 3 ppm spray; for pest or weed control at 35 ppm: 35 ppm spray; for pest or weed control at 8 ppm: 8 ppm spray; for pest or weed control at 25 ppm: 25 ppm spray. As to the method:
Using the following compound listed in Table 2 (the active ingredient A) and the compound listed in Table 5 through Table 15 (active ingredient B), an agent was prepared in accordance with the above Formulation Example. This agent was diluted with water to a predetermined concentration to obtain a test solution. Then, cucumber (variety: Sagami-hanjiro) was planted in a plastic pot of 90 cm^3, and in the cotyledon stage, 5 ml of the obtained test solution, was sprayed by a spray gun and air-dried. Thereafter, the treated leaf was cut off and placed in a plastic container which filled approximately 0.5 cm in depth water. A suspension of conidia of cucumber gray mold fungus (Botrytis cinerea) and a dissolved PDA culture medium were mixed at a ratio of 1:1 (mass ratio), and the mixture was dropped to inoculate the treated leaf with 30 μl. After the inoculation, the plastic container was sealed and left at 20° C. for 3 days, the ratio of the formed lesion occupying the inoculated leaf was measured, and the preventive value was calculated in accordance with the following calculation formula. Preventive value=[1−(treated plot lesion area ratio/untreated plot lesion area ratio)]×100
Further, from the preventive value at each agent concentration, synergy was calculated by using the Colby method (Colby S. R. 1976, Weeds 15, 20-22). The calculation method is as follows. E=X+Y−XY/100
X: preventive value of A agent at x concentration
Y: preventive value of B agent at y concentration
E: theoretical value expected by treatment of the mixture of A agent and B agent.
The obtained result is analyzed to be synergy if the observed value is larger than the expected value, to be antagonism if the expected value is larger than the observed value, and to be an additive effect if the observed value and the expected value are the same.
Using the following compound listed in Table 2 (active ingredient A) and the following compound listed in Table 5 through Table 15 (active ingredient B) as active ingredients, a preventive test against gray mold was conducted in accordance with the method described in Test Example 1.
Using the following compound listed in Table 2 (active ingredient A) and the following compound listed in Table 5 or Table 6 (active ingredient B) as active ingredients, a preventive test against gray mold was conducted in accordance with the method described in Test Example 1.
Using the following compound listed in Table 2 (active ingredient A) and the following compound listed in Table 6 through Table 16 (active ingredient B) as active ingredients, a preventive test against gray mold was conducted in accordance with the method described in Test Example 1.

Assay [2] relates to wheat glume blotch (Leptosphaeria nodorum). As to the kind of experiment: Efficacy test on wheat glume blotch, spray treatment and prevention test (Test Example 8). Format: in vivo. As to conditions: spray, lesion area ratio. On the procedure:
An agent comprising the following compound listed in Table 2 (active ingredient A) and the following compound listed in Table 6, Table 11 or Table 15 (active ingredient B) as active ingredients, was prepared in accordance with the above Formulation Example. This agent was diluted with water to a predetermined concentration to obtain a test solution. Then, to seedlings of wheat (variety: Haruyutaka) at the 1-leaf stage, seeded in a pot with a diameter of 7 cm, with 5 seeds per pot, and grown for 7 days, the test solution was applied by a spray gun in an amount of 5 ml per pot, for treatment. One day after the treatment, a spore suspension (1×100,000 cfu/ml) of wheat glume blotch (Leptosphaeria nodorum) was spray-inoculated, and the pot was placed in a moist chamber set in temperature of 20° C. and humidity more than 95% RH for 48 hours. After placing the pot in a glass greenhouse for 7 days, the ratio of the formed lesion area occupying the inoculated leaves was measured, and the preventive value was calculated in accordance with the following formula. Preventive value=[1−(treated plot lesion area ratio/untreated plot lesion area ratio)]×100
Further, from the preventive value for each agent concentration, synergy was calculated by using the Colby method (Colby S. R. 1976, Weeds 15, 20-22).

The mark [3] stands for this setting: Test Example 4, 100 ppm spray, read-out: Preventive value.
Where [4] appears, read: Test Example 1, read-out: Preventive value.
Where [5] appears, read: Test Example 2, read-out: Preventive value.
Setting [6] is: Test Example 4, 50 ppm spray, read-out: Preventive value.
Where [7] appears, read: Test Example 4, 10 ppm spray, read-out: Preventive value.

As to `Cn1cc(C(=O)Nc2cccc3c2[C@@H]2CC[C@H]3C2=C(Cl)Cl)c(C(F)F)n1` (racemic) [C01, benzovindiflupyr], in assay [1] (Test Example 3, 5 ppm spray), the Preventive value is reported as 60. Turning to `C[C@@]1(c2ccc(Oc3ccccc3)cc2)OC(=O)N(Nc2ccccc2)C1=O` (racemic) [C23, famoxadone], in assay [1] (setting [3]), the pest or weed control at 100 ppm amounted to 35%. For `Fc1ccc([C@]2(Cn3cncn3)O[C@H]2c2ccccc2Cl)cc1` (racemic) [Compound No. H10, epoxiconazole], the Preventive value in assay [1] (Test Example 1, 10 ppm spray) is 60; in assay [1] (Test Example 2, 10 ppm spray), 50; in assay [2] (single compound 1 ppm), 50. Regarding `CCCCNC(=O)n1c(NC(=O)OC)nc2ccccc21` [B01, benomyl], the pest or weed control at 3 ppm in assay [1] (setting [4]) worked out at 50%; in assay [1] (setting [5]), 45%. Turning to `COC(=O)NC(=S)Nc1ccccc1NC(=S)NC(=O)OC` [B05, thiophanate-methyl], in assay [1] (Test Example 3, 10 ppm spray, read-out: Preventive value), the pest or weed control at 10 ppm turned out to be 60%. In the case of `CCOc1ccc(NC(=O)OC(C)C)cc1OCC` [B06, diethofencarb], the pest or weed control at 50 ppm in assay [1] (read-out: Preventive value, Test Example 3, 50 ppm spray) was 45%. For the molecule `Cn1cc(C(=O)Nc2ccc(F)cc2-c2ccc(Cl)c(Cl)c2)c(C(F)F)n1` [C02, bixafen], the Preventive value in assay [1] (Test Example 3, 50 ppm spray) was determined as 70. `O=C(Nc1ccccc1-c1ccc(Cl)cc1)c1cccnc1Cl` [C03, boscalid]: the pest or weed control at 3 ppm is 60% in assay [1] (setting [4]) and 58% in assay [1] (setting [5]). For `O=C(NCCc1ncc(C(F)(F)F)cc1Cl)c1ccccc1C(F)(F)F` [C06, fluopyram], the pest or weed control at 5 ppm in assay [1] (Test Example 3, 5 ppm spray) worked out at 63%. Consider `CC(C)Oc1cccc(NC(=O)c2ccccc2C(F)(F)F)c1` [C07, flutolanil], for which the pest or weed control at 100 ppm in assay [1] (Test Example 3, 100 ppm spray, read-out: Preventive value) amounted to 50%.

Turning to `Cn1cc(C(=O)Nc2ccccc2-c2cc(F)c(F)c(F)c2)c(C(F)F)n1` [C08, fluxapyroxad], the Preventive value in assay [1] (Test Example 3, 1 ppm spray) was found to be 65.

Consider `Cc1nn(C)c(Cl)c1C(=O)Nc1cccc2c1C(C)OC2(C)C` (stereo not shown) [C09, furametpyr], for which the Preventive value in assay [1] (Test Example 3, 100 ppm spray) is reported as 55.

Turning to `Cc1cc(OC(C)C)ccc1C(=O)C(C)(C)NC(=O)c1sccc1C` [C10, isofetamid], the Preventive value in assay [1] (Test Example 3, 5 ppm spray) was determined as 45.

Consider `Cc1ccccc1C(=O)Nc1cccc(OC(C)C)c1` [C12, mepronil], for which the pest or weed control at 10 ppm in assay [1] (read-out: Preventive value, Test Example 3, 10 ppm spray) was 60%. With `Cc1nn(C)c(F)c1C(=O)Nc1ccccc1C(C)CC(C)C` (stereo not shown) [C14, penflufen], in assay [1] (Test Example 3, 100 ppm spray), the Preventive value stood at 65. Take `CC(C)CC(C)c1sccc1NC(=O)c1cn(C)nc1C(F)(F)F` (stereo not shown) [C15, penthiopyrad]: the pest or weed control at 5 ppm in assay [1] (Test Example 3, 5 ppm spray) stood at 60%. With `Cn1cc(C(=O)Nc2ccccc2C2CC2C2CC2)c(C(F)F)n1` (stereo not shown) [C16, sedaxane], in assay [1] (Test Example 3, 10 ppm spray), the Preventive value amounted to 50. Regarding `CO/N=C(/C(=O)OC)c1ccccc1COc1ccccc1C` [C28, kresoxim-methyl], the pest or weed control at 10 ppm was 45% in assay [1] (Test Example 1, 10 ppm spray, read-out: Preventive value) and 56% in assay [1] (Test Example 2, 10 ppm spray, read-out: Preventive value). Besides, the pest or weed control at 5 ppm in assay [2] (Parastagonospora nodorum, single compound 5 ppm, read-out: Preventive value) is 45%. With `CNC(=O)/C(=N/OC)c1ccccc1CO/N=C(C)/C(=N/OC)C(/C)=N/OC` [C31, orysastrobin], the Preventive value in assay [1] (Test Example 4, 50 ppm spray) was 40. Regarding `O=[N+]([O-])c1cc(C(F)(F)F)c(Cl)c([N+](=O)[O-])c1Nc1ncc(C(F)(F)F)cc1Cl` [C43, fluazinam], the pest or weed control at 50 ppm in assay [1] (setting [6]) turned out to be 45%. Consider `N#Cc1c[nH]cc1-c1cccc2c1OC(F)(F)O2` [Compound No. E04, fludioxonil], for which the pest or weed control at 3 ppm amounted to 60% in assay [1] (read-out: Preventive value, Test Example 1) and 58% in assay [1] (read-out: Preventive value, Test Example 2). Regarding `CC(C)NC(=O)N1CC(=O)N(c2cc(Cl)cc(Cl)c2)C1=O` [Compound No. F01, iprodione], the pest or weed control at 35 ppm in assay [1] (Test Example 1) was 50%; in assay [1] (Test Example 2), 48%.

With `Cc1cc(C2CC2)nc(Nc2ccccc2)n1` [D1, cyprodinil], the pest or weed control at 50 ppm in assay [1] (setting [6]) is 50%. With `CC#Cc1cc(C)nc(Nc2ccccc2)n1` [D2, mepanipyrim], the pest or weed control at 8 ppm in assay [1] (Test Example 1) was 55%; in assay [1] (Test Example 2), 56%. On to `Fc1ccc(Oc2ccnc3cc(Cl)cc(Cl)c23)cc1` [E02, quinoxyfen], for which the pest or weed control at 100 ppm in assay [1] (setting [3]) was 5%.

For the molecule `CC12CC1(C)C(=O)N(c1cc(Cl)cc(Cl)c1)C2=O` (stereo not shown) [F02, procymidone], in assay [1] (setting [7]), the pest or weed control at 10 ppm was found to be 55%. In the case of `COc1cc(Cl)c(OC)cc1Cl` [G06, chloroneb], the pest or weed control at 100 ppm in assay [1] (read-out: Preventive value, Test Example 4, 100 ppm spray) was determined as 35%. Regarding `CC(C1CC1)C(O)(Cn1cncn1)c1ccc(Cl)cc1` (stereo not shown) [H05, cyproconazole], the pest or weed control at 10 ppm in assay [1] (setting [7]) worked out at 45%.

On to `CC1COC(Cn2cncn2)(c2ccc(Oc3ccc(Cl)cc3)cc2Cl)O1` (stereo not shown) [H07, difenoconazole], for which the pest or weed control at 10 ppm in assay [1] (setting [7]) was determined as 50%.

`OC(c1ccc(Cl)cc1)(c1cncnc1)c1ccccc1Cl` (stereo not shown) [H12, fenarimol]: the pest or weed control at 10 ppm in assay [1] (setting [7]) came out at 55%.

As for `O=c1c2cc(F)ccc2nc(-n2cncn2)n1-c1ccc(Cl)cc1Cl` [H15, fluquinconazole], the pest or weed control at 10 ppm in assay [1] (setting [7]) was found to be 55%. The same measure, in the same setting: the figure for `C[Si](Cn1cncn1)(c1ccc(F)cc1)c1ccc(F)cc1` [H16, flusilazole] is 50%. The same measure, in the same setting: the figure for `OC(Cn1cncn1)(c1ccc(F)cc1)c1ccccc1F` (stereo not shown) [H17, flutriafol] is 45%; for `CCCC(Cn1cncn1)c1ccc(Cl)cc1Cl` (stereo not shown) [H28, penconazole] it is 45%. Still for that read-out and setting: the figure for `FC(F)C(F)(F)OCC(Cn1cncn1)c1ccc(Cl)cc1Cl` (stereo not shown) [H36, tetraconazole] is 55%. Take `CC(Cc1ccc(C(C)(C)C)cc1)CN1CCCCC1` (stereo not shown) [H44, fenpropidin]: the pest or weed control at 100 ppm in assay [1] (setting [3]) was 35%. Consider `CC(Cc1ccc(C(C)(C)C)cc1)CN1C[C@@H](C)O[C@@H](C)C1` (stereo partly shown) [H45, fenpropimorph], for which the pest or weed control at 100 ppm in assay [1] (setting [3]) worked out at 10%. As for `CC1(C(=O)Nc2ccc(O)c(Cl)c2Cl)CCCCC1` [H49, fenhexamid], the results for the pest or weed control at 25 ppm in assay [1] (Test Example 1) and in assay [1] (Test Example 2) were 30% and 25%, respectively. For the molecule `O=C1c2ccccc2C(=O)N1SC(Cl)(Cl)Cl` [L24, folpet], the pest or weed control at 100 ppm in assay [1] (setting [3]) turned out to be 45%. On the same count and under the same terms, the figure for `O=C(Cc1ccccc1)N/C(=N\OCC1CC1)c1c(C(F)(F)F)ccc(F)c1F` [M01, cyflufenamid] is 15%; for `COc1cc(C)c(C(=O)c2c(OC)ccc(Br)c2C)c(OC)c1OC` [M09, metrafenone] it is 5%. As to mancozeb [L16], the Preventive value in assay [1] (Test Example 4, 100 ppm spray) is 45.
